EP0306300B1, “Pyrrolo(1,2-a)imidazole and imidazo(1,2-a)pyridine derivatives and their use as 5-lipoxygenase pathway inhibitors” (SMITHKLINE BEECHAM CORPORATION, priority 1987, dated 1989)

Experiments:
cynomolgus monkeys [1] = experiment: CNS activity / oral toxicity in cynomolgus monkeys; conditions: cynomolgus monkey, in vivo
Description: Additional monkeys tolerated repeated doses of 45 mg/kg or 30 mg/kg and one animal tolerated an escalating dose schedule of 30-90-120 mg/kg.
The two monkeys administered 400 mg/kg were repeatedly administered this dose for 7 consecutive days; each animal experienced emesis within 1 to 5 hours of dosing after the 1st, 3rd and 4th doses, whereas only the female experienced emesis after the 5th, 6th and 7th doses. A complete necropsy, serum clinical chemistry, hematology and histological examination was completed on both monkeys.

[2] = Cytochrome P-450 inhibition (ethoxycoumarin-O-deethylase activity, phenobarbital-induced microsomes); conditions: rat
cynomolgus monkeys [3] = experiment: CNS activity / oral toxicity in cynomolgus monkeys; assay type: in vivo
[4] = Log D determination by high pressure liquid chromatography; assay type: physicochemical; conditions: hplc ods, mobile phase MeOH:H2O, pH 7.4, read-out: (Log D) (Lipophilicity)
Description: The procedure used to determine the log D's listed on Table VI was as follows. A 20 »l sample was injected into a Shandon Hypersil ODS, 5» (100 mm x 4.6 mm ID) column and was eluted using a mobile phase of […] MeOH:H₂O (The aqueous portion was .01 M in KH₂PO₄ and adjusted to pH 7.4 with KOH after mixing the MeOH), at a flow rate of 2 ml per minute. Eluting peaks were detected by UV absorbance at […]. All samples were made up at 0.1 mg/ml. (Retentions were identical at 0.01 mg/ml.)
The data was analyzed by determining the regression line corresponding to the log k′ vs. literature log P of the reference standards.
The reference standards and their literature log P's included NaNO₂, 0.0; acetanalide, 1.16; acetophenone, 1.66; anisole, 2.08; chlorobenzene, 2.84; benzophenone, 3.18; anthracene, 4.45; and pentachlorobenzene, 5.12.

[5] = tested on: arachidonic acid-induced edema in mice; experiment: Arachidonic acid-induced mouse ear inflammation (ear swelling); assay type: in vivo, male Balb/c mice; conditions: mouse, po; read-out: AAEE(MOUSE ED50 mg/kg (po))
Description: In the tests used to determine activity as 5-lipoxygenase pathway inhibitors, male Balb/c mice (20-28 g), were used. All mice were obtained from Charles River Breeding Laboratories, Kingston, N.Y. Within a single experiment, mice were age matched.
Reagents were employed as follows: Compounds of Formula (I) were each used as the free base. The compounds were homogenized in 0.5% tragacanth. Compounds were administered by […] at the indicated dose in a final volume of 10 ml/kg.
Arachidonic acid in acetone (2 mg/20 »l) was applied to the inner surface of the left ear. The thickness of both ears was then measured with a dial micrometer one hour after treatment, and the data were expressed as the change in thickness (10⁻³ cm) between treated and untreated ears.
Test compounds were given orally in acid/saline at the times indicated in the text prior to the topical application of arachidonic acid.
Dermatol., 82, 367-371 (1984)].

[6] = cynomolgus monkey, in vivo, po, 60 mg/kg

Compound | Adverse CNS activity (cynomolgus monkeys [1]) | IC50 ([2]; liver microsomes) [nM] | IC50 ([2]; microsomes) [nM] | time of death after dosing (cynomolgus monkeys [3]; cynomolgus monkey, in vivo, 90 mg/kg) [h] | clinical effects (cynomolgus monkeys [3]; oral 90 mg/kg/day, two consecutive days, 1 female, 1 male, 90 mg/kg/day) | chromatographic logD [4] | ED50 [5] [mg/kg] | clinical effects (cynomolgus monkeys [3]; [6]) | time of death after dosing (cynomolgus monkeys [3]; [6]) [h] | clinical effects (cynomolgus monkeys [3]; cynomolgus monkey, in vivo, po, 90 mg/kg) | clinical effects (cynomolgus monkeys [3]; single oral dose of 90 mg/kg, 1 female, 1 male, 90 mg/kg)
Fc1ccc(-c2nc3n(c2-c2ccncc2)CCS3)cc1 [Compound A, 5-(4-pyridyl)-6-(4-fluorophenyl)-2,3-dihydroimidazo[2,1-b]thiazole] | +++ | 600 | 900 | 1 to 5 | caused convulsions and death | 2.19 | 27 | – | – | – | –
COc1ccc(-c2nc3n(c2-c2ccncc2)CCC3)cc1 [Compound C, 2-(4-methoxyphenyl)-3-(4-pyridyl)-6,7-dihydro-[5H]-pyrrolo[1,2-a]imidazole] | +++ | 21400 | – | – | – | 2.14 | 28 | sedation, loss of consciousness and death of one (male) | ≤ 1 | death of both animals | caused convulsions and death
